Measured values taken from paper PMC12523303, “Multi-Fused S,N-Heterocyclic Compounds for Targeting α-Synuclein Aggregates” (Cells, 2025).

How the values were obtained:
[1] = target: T1, α-synuclein (α-syn) aggregates in PD brain homogenates (Homo sapiens, UniProt P37840); assay: Two point screening assay (30 nM and 300 nM) vs [3H]asyn-44 in human PD brain homogenates; assay type: binding; settings: for % [3H]asyn-44 remaining at 30 nM / remaining activity at 0.03 µM: 30 nM competitor; for % [3H]asyn-44 remaining at 300 nM / remaining activity at 0.3 µM: 300 nM competitor
T1 construct: Anterior cingulate cortex tissue from a Parkinson’s disease (PD) case; tissue Banner Sun Health Research Institute (Dr. Thomas Beach); host or cells: post-mortem human PD anterior cingulate cortex homogenate
Procedure: Screening assays for the test compounds were performed at two concentrations—30 nM and 300 nM—using unlabelled competitors in human PD brain homogenates against [^3H]asyn-44 as previously described. […] Each assay was conducted in triplicate for both concentrations to ensure reproducibility and statistical reliability.

[2] = target: T1, α-synuclein (α-syn) aggregates in PD brain homogenates; assay: In vitro competition (Ki) assay vs [3H]asyn-44 in PD brain homogenates; assay type: binding; settings: 1 nM [3H]asyn-44
Procedure: Anterior cingulate cortex tissue from a Parkinson’s disease (PD) case was generously provided by Dr. Thomas Beach at the Banner Sun Health Research Institute in Arizona, USA. […] Preparation of the frozen blocks for binding assays followed previously established protocols.
The equilibrium inhibition constants (Ki) for the unlabelled compounds were measured against [^3H]asyn-44 using our previously reported procedure. For these assays, frozen aliquots of homogenized human brain tissue (stored at −80 °C) were used. Homogenates were prepared at 10 mg/mL in phosphate-buffered saline, then diluted with 50 mM Tris buffer (pH 7.0) to a working concentration of 1 mg/mL.
Unlabeled competitor compounds were initially dissolved in DMSO at 400 μM, then diluted with Tris buffer to 20 μM, resulting in a 5% DMSO concentration. A serial dilution series (ranging from 6 μM to 4 nM) was prepared in the same 5% DMSO/Tris buffer solution to maintain consistent solvent conditions throughout the assay.
To perform the binding assay, 50 μL of the appropriately diluted competitor solution was mixed with 50 μL of [^3H]asyn-44 (1 nM final concentration) and 800 μL of Tris buffer containing 20% ethanol and 0.1% bovine serum albumin (BSA). Then, 100 μL of the 1 mg/mL brain homogenate was added, bringing the final tissue concentration to 100 μg/mL. The reaction mixtures were incubated at room temperature for 60 min before filtration through Whatman GF/B glass fibre filters using a Brandel M-24R cell harvester (Gaithersburg, MD, USA). Filters were washed three times with 3 mL of Tris buffer containing 20% ethanol and 0.1% BSA.
After washing, retained radioactivity was measured using CytoScint-ES scintillation fluid following thorough vortexing. Specific binding was calculated by correcting for nonspecific binding (as described later), and the amount of bound radioligand was derived from the filter-associated radioactivity and the molar activity of the tritiated compound.

[3] = Metabolic stability in human liver microsomes; assay type: in vitro ADME; settings: for % disappearance at 5 minutes relative to time zero / % disappearance at 15 minutes relative to time zero / % disappearance at 30 minutes relative to time zero / Clearance Category / remaining at 5 min, 1 μM / remaining at 0.5 h, 1 μM: human liver microsomes; for Clearance Category: as per Cyprotex Website; for half-life at 1 μM: human, pH 7.4, human liver microsomes (h-MR); for half-life at 1 μM / remaining at 5 min, 1 μM / remaining at 0.5 h, 1 μM: pooled human liver microsomes; for remaining at 5 min, 1 μM / remaining at 0.5 h, 1 μM: pH 7.4; for % disappearance at 30 minutes relative to time zero / remaining at 0.5 h, 1 μM: 30 min
Procedure: Metabolic stability assays were conducted using pooled human liver microsomes (HLMs) to evaluate the rate of in vitro metabolic degradation of the test compound. Incubations were carried out in duplicate (n = 2) at a final compound concentration of 1 μM. The protein concentration of the microsomal suspension was adjusted to 0.5 mg/mL using phosphate buffer (100 mM, pH 7.4). Reactions were initiated by the addition of NADPH (final concentration 1 mM) and incubated at 37 °C. Aliquots were taken at four time points: 0, 5, 15, and 30 min. Each reaction was quenched with ice-cold acetonitrile containing internal standard, followed by centrifugation to pellet proteins. Supernatants were analyzed using a validated LC-MS/MS method to determine the concentration of the parent compound at each time point. […] Metabolic stability was assessed by calculating the percentage of the parent compound remaining at each time point. The elimination rate constant (k), half-life (t1/2), and intrinsic clearance (CLint) were derived from the natural log-transformed concentration vs. time data, assuming first-order kinetics.

% [3H]asyn-44 remaining at 30 nM [1] [%] | % [3H]asyn-44 remaining at 300 nM [1] [%] | SMILES | also measured
72 | 39 | CC1CCN(c2ncc(-c3ccc4sc(-c5cccnc5)cc4n3)cc2F)C1 (stereo not shown) [LMD-001] | 
57 | 21 | Fc1cc(-c2ccc3sc(-c4cccnc4)cc3n2)cnc1N1CCCC1 [LMD-002] | 
112 | 64 | Cn1ccc(-c2cc3nc(-c4ccc(N5CCC(F)C5)nc4)ccc3s2)n1 (stereo not shown) [LMD-005] | 
 |  | F[C@@H]1CCN(c2ccc(-c3ccc4sc(-c5cncs5)cc4n3)cn2)C1 [LMD-006] | Ki [2]: 12 nM; remaining activity at 0.03 µM [1]: 53%; remaining activity at 0.3 µM [1]: 2%; % disappearance at 5 minutes relative to time zero [3]: 60.2%; % disappearance at 15 minutes relative to time zero [3]: 88.1%; % disappearance at 30 minutes relative to time zero [3]: 95.7%; Clearance Category [3]: High; half-life at 1 μM [3]: 6.81 min; remaining at 5 min, 1 μM [3]: 39.6%; remaining at 0.5 h, 1 μM [3]: 4.32%
45 | 17 | FC1CCN(c2cnc(-c3ccc4sc(-c5cccnc5)cc4n3)cn2)C1 (stereo not shown) [LMD-009] | 
87 | 58 | Cn1ccc(-c2cc3nc(-c4cnc(N5CCC(F)C5)cn4)ccc3s2)n1 (stereo not shown) [LMD-013] | 
45 | 20 | F[C@@H]1CCN(c2cnc(-c3ccc4sc(-c5cncs5)cc4n3)cn2)C1 [LMD-014] | 
46 | 21 | COc1cncc(-c2cc3nc(-c4cnc(N5CCC(F)C5)cn4)ccc3s2)c1 (stereo not shown) [LMD-015] | 
91 | 48 | Cn1ccc(N2Cc3nc(-c4ccc(N5CCC(F)C5)nc4)ccc3C2=O)n1 (stereo not shown) [LMD-016] | 
43 | 25 | Cn1ccc(N2Cc3nc(-c4cnc(N5CCC(F)C5)cn4)ccc3C2=O)n1 (stereo not shown) [LMD-017] | 
66 | 27 | O=C1c2ccc(-c3ccc(N4CCC(F)C4)nc3)nc2CN1c1cccnc1 (stereo not shown) [LMD-019] | 
99 | 50 | Cn1cnc(N2Cc3nc(-c4ccc(N5CCC(F)C5)nc4)ccc3C2=O)c1 (stereo not shown) [LMD-023] | 
72 | 13 | FC1CCN(c2ccc(-c3cc4nc(-c5cccnc5)ccc4s3)cn2)C1 (stereo not shown) [LMD-024] | Ki [2]: 54 nM
56 | 25 | FC1CCN(c2ccc(-c3csc4ccc(-c5cccnc5)nc34)cn2)C1 (stereo not shown) [LMD-026] | 
81 | 38 | FC1CCN(c2ccc(-n3cc4sc(-c5cncs5)cc4n3)cn2)C1 (stereo not shown) [LMD-028] | 
34 | 12 | FC1CCN(c2cnc(-n3cc4sc(-c5cncs5)cc4n3)cn2)C1 (stereo not shown) [LMD-029] | Ki [2]: 13 nM
66 | 24 | FC1CCC(c2cnc(-n3cc4sccc4n3)cn2)C1 (stereo not shown) [LMD-031] | 
 |  | F[C@@H]1CCN(c2ccc(-n3cc4sc(-c5cccnc5)cc4n3)cn2)C1 [LMD-032] | Ki [2]: 50 nM; remaining activity at 0.03 µM [1]: 38%; remaining activity at 0.3 µM [1]: 25%; % disappearance at 5 minutes relative to time zero [3]: 46.7%; % disappearance at 15 minutes relative to time zero [3]: 79.2%; % disappearance at 30 minutes relative to time zero [3]: 95.0%; Clearance Category [3]: High; half-life at 1 μM [3]: 7.05 min; remaining at 5 min, 1 μM [3]: 53.3%; remaining at 0.5 h, 1 μM [3]: 5.02%
51 | 33 | F[C@@H]1CCN(c2cnc(-n3cc4sc(-c5cccnc5)cc4n3)cn2)C1 [LMD-033] | 
65 | 23 | FC1CCN(c2cnc(-c3ccc4sccc4n3)cn2)CC1 [LMD-036] | 
57 | 27 | FC1CCN(c2cnc(-c3ccc4sccc4n3)cn2)C1 (stereo not shown) [LMD-039] | 

% [3H]asyn-44 remaining at 30 nM [1] [%] | % [3H]asyn-44 remaining at 300 nM [1] [%] | SMILES | also measured
54 | 28 | FC1CCN(c2ccc(-c3ccc4scc(Br)c4n3)cn2)C1 (stereo not shown) [LMD-040] | 
77 | 13 | FC1CCN(c2ccc(-c3ccc4scc(-c5cccnc5)c4n3)cn2)C1 (stereo not shown) [LMD-041] | Ki [2]: 58 nM
 |  | F[C@@H]1CCN(c2cnc(-c3csc4ccc(-c5cccnc5)nc34)cn2)C1 [LMD-044] | Ki [2]: 9.1 nM; remaining activity at 0.03 µM [1]: 38%; remaining activity at 0.3 µM [1]: 4%; % disappearance at 5 minutes relative to time zero [3]: 54.3%; % disappearance at 15 minutes relative to time zero [3]: 88.3%; % disappearance at 30 minutes relative to time zero [3]: 96.3%; Clearance Category [3]: High; half-life at 1 μM [3]: 6.37 min; remaining at 5 min, 1 μM [3]: 45.7%; remaining at 0.5 h, 1 μM [3]: 3.71%
89 | 35 | FC1CCN(c2cc(Cl)ncc2-c2ccc3sc(-c4cccnc4)cc3n2)C1 (stereo not shown) [LMD-049] | 
58 | 15 | Cn1ccc(-c2cc3nn(-c4cnc(N5CCC(F)C5)cn4)cc3s2)n1 (stereo not shown) [LMD-054] | Ki [2]: 24 nM
56 | 29 | FC1CCN(c2ccnc(-n3cc4sc(-c5cccnc5)cc4n3)n2)C1 (stereo not shown) [LMD-061] | 
43 | 32 | FC1CCN(c2cnc(-c3ccc4sc(-c5cncs5)cc4n3)cn2)CC1 [LMD-062] | 
64 | 33 | Cn1ccc(-c2csc3ccc(-c4ccc(N5CCC(F)C5)nc4)nc23)n1 (stereo not shown) [LMD-063] | 
46 | 26 | O=C1NCc2nc(-c3ccc(N4CCC(F)C4)nc3)ccc21 (stereo not shown) [LMD-064] | 
76 | 51 | Cn1ccc(-c2cc3nn(-c4cnc(N5CCC(F)CC5)cn4)cc3s2)n1 [LMD-066] | 
86 | 28 | Cn1ccc(-c2cc3nn(-c4ccc(N5CCC(F)C5)nn4)cc3s2)n1 (stereo not shown) [LMD-067] | 
50 | 34 | FC1CCN(c2cc(-n3cc4sc(-c5cccnc5)cc4n3)ncn2)CC1 [LMD-068] | 
49 | 31 | FC1CCN(c2ccnc(-n3cc4sc(-c5cccnc5)cc4n3)n2)CC1 [LMD-069] | 
43 | 22 | FC1CCN(c2ccnc(-n3ncc4sc(-c5cccnc5)cc43)n2)C1 (stereo not shown) [LMD-070] | 
48 | 33 | Cn1ccc(-c2cc3c(cnn3-c3ccc(N4CCC(F)C4)nn3)s2)n1 (stereo not shown) [LMD-072] | 
71 | 29 | FC1CCN(c2cc(-n3ncc4sc(-c5cccnc5)cc43)ncn2)C1 (stereo not shown) [LMD-073] | 
55 | 45 | Cn1ccc(-c2cc3nn(-c4cc(N5CCC(F)CC5)ncn4)cc3s2)n1 [LMD-074] | 
41 | 19 | Cn1ccc(-c2cc3nn(-c4nccc(N5CCC(F)CC5)n4)cc3s2)n1 [LMD-075] | 
64 | 22 | Cn1ccc(-c2cc3c(cnn3-c3nccc(N4CCC(F)CC4)n3)s2)n1 [LMD-076] | 
67 | 20 | Cn1ccc(-c2cc3c(cnn3-c3cc(N4CCC(F)CC4)ncn3)s2)n1 [LMD-077] | 

SMILES | % [3H]asyn-44 remaining at 30 nM [1] [%] | % [3H]asyn-44 remaining at 300 nM [1] [%] | also measured
Cn1ccc(-c2cc3nc(-c4cnc(N5CCC(F)CC5)cn4)ccc3s2)n1 [LMD-060] | 48 | 29 | 
